The values that follow come from patent US20070128217A1 (priority 2003, published 2007).

In test [1] the test system is antibodies in sera from SARS patients (sera 1a, 1b, 2, 6, 37, 62, London, SARS-yellow, SARS-green). It counts as binding, human. The arrangement: Binding of serum 6 to linear peptides of protein X1 of SARS-CoV Urbani / Binding of serum 37 to linear peptides of protein X1 of SARS-CoV Urbani / Binding of serum 6 to looped/cyclic peptide (PEPSCAN-ELISA) / Binding of serum 37 to looped/cyclic peptide (PEPSCAN-ELISA) / Binding of serum 37 to looped/cyclic peptides of protein X1 of SARS-CoV Urbani / Binding of serum 6 to linear peptides of protein X2 / Binding of serum 37 to linear peptides of protein X2 / Binding of serum 37 to looped/cyclic peptides of protein X2 of SARS-CoV Urbani / Binding of serum 6 to linear peptides of protein M of SARS-CoV Urbani / Binding of serum 37 to linear peptides of protein M of SARS-CoV Urbani / Binding of serum 6 to looped/cyclic peptides of protein M of SARS-CoV Urbani / Binding of serum 37 to looped/cyclic peptides of protein M of SARS-CoV Urbani / Binding of serum 6 to linear peptides of protein X3 of SARS-CoV Urbani / Binding of serum 37 to linear peptides of protein X3 of SARS-CoV Urbani / Binding of serum 37 to looped/cyclic peptides of protein X3 of SARS-CoV Urbani / Binding of serum 6 to linear peptides of protein X4 of SARS-CoV Urbani / Binding of serum 37 to linear peptides of protein X4 of SARS-CoV Urbani / Binding of serum 37 to looped/cyclic peptides of protein X4 of SARS-CoV Urbani / Binding of serum 6 to linear peptides of protein X5 of SARS-CoV Urbani / Binding of serum 37 to linear peptides of protein X5 of SARS-CoV Urbani / Binding of serum 37 to looped/cyclic peptides of protein X5 of SARS-CoV Urbani / Binding of serum 6 to linear peptides of protein N of SARS-CoV Urbani / Binding of serum 37 to linear peptides of protein N of SARS-CoV Urbani / Binding of serum 6 to linear peptide (PEPSCAN-ELISA) / Binding of serum 1a to looped/cyclic peptides of protein N of SARS-CoV Urbani / Binding of serum 1b to looped/cyclic peptides of protein N of SARS-CoV Urbani / Binding of serum 2 to looped/cyclic peptides of protein N of SARS-CoV Urbani / Binding of serum 6 to looped/cyclic peptides of protein N of SARS-CoV Urbani / Binding of serum 37 to looped/cyclic peptides of protein N of SARS-CoV Urbani / Binding of serum 62 to looped/cyclic peptides of protein N of SARS-CoV Urbani / Binding of serum London to looped/cyclic peptides of protein N of SARS-CoV Urbani / Binding of serum SARS-green to looped/cyclic peptides of protein N of SARS-CoV Urbani: unit not given here.

Test [2] has as its system control sera (pooled serum of ten healthy LUMC hospital workers; commercial negative donor pooled serum from the Dutch bloodbank). The format is binding, human. Set-up: Binding of Control serum LUMC to linear peptides / Binding of Control serum Blood-bank to linear peptides / Binding of Control serum LUMC to looped peptides / Binding of Control Serum Blood-Bank to Looped peptides / Binding of Control serum LUMC to linear peptides of the protein M of SARS-CoV Urbani / Binding of Control serum Blood-bank to linear peptides of the protein M of SARS-CoV Urbani / Binding of Control serum LUMC to looped peptides of the protein M of SARS-CoV Urbani / Binding of Control Serum Blood-Bank to Looped peptides of the protein M of SARS-CoV Urbani: unit not given here.

The subject of test [3] is rabbit serum obtained by immunizing a rabbit with the SARS-CoV strain Frankfurt 1. The format is binding. Set-up: Binding of a rabbit serum to linear peptides / Binding of a rabbit serum to looped peptides / Rabbit serum linear peptides / Rabbit serum looped peptides / Binding of a rabbit serum to linear peptides of protein N of SARS-CoV Urbani (Rabbit serum linear peptides) / Binding of a rabbit serum to looped/cyclic peptides of protein N of SARS-CoV Urbani (Rabbit serum looped peptides): unit not given here.

In the case of NACRIIMRCWLCWKC, in test [1], the “Binding of serum 1a to looped/cyclic peptide (PEPSCAN-ELISA)” value is 0.6, the “Binding of serum 1b to looped/cyclic peptide (PEPSCAN-ELISA)” value came out at 0.5, the “Binding of serum 2 to looped/cyclic peptide (PEPSCAN-ELISA)” value amounted to 0.5 and the “Binding of serum 6 to looped/cyclic peptide (PEPSCAN-ELISA)” value was 0.6. For the same sequence, in test [1], the “Binding of serum 37 to looped/cyclic peptide (PEPSCAN-ELISA)” value came to 0.5, the “Binding of serum 62 to looped/cyclic peptide (PEPSCAN-ELISA)” value came to 0.7, the “Binding of serum London to looped/cyclic peptide (PEPSCAN-ELISA)” value was 0.3 and the “Binding of serum SARS-green to looped/cyclic peptide (PEPSCAN-ELISA)” value amounted to 0.3. Also, in test [1], the “Binding of serum SARS-yellow to looped/cyclic peptide (PEPSCAN-ELISA)” value was determined as 0.4; the “Recognition of the peptide by sera of SARS-CoV infected individuals, and form (linear, looped/cyclic) in which it is recognized” value was “recognized in linear form”. In addition, in test [2], the “Binding of Control Serum Blood-Bank to Looped peptides” value turned out to be 0.8, the “Binding of Control serum Blood-bank to linear peptides” value was 1.0, the “Binding of Control serum LUMC to linear peptides” value is recorded as 0.5 and the “Binding of Control serum LUMC to looped peptides” value was 0.6. Further, the “Recognition of the peptide by the rabbit serum” value in test [3] is on record as “recognized”.

As for NKFALTCTSTHFAFA, in test [1], the “Binding of serum 1a to linear peptides of protein X4 of SARS-CoV Urbani” value came out at 0.6, the “Binding of serum 1a to looped/cyclic peptides of protein X4 of SARS-CoV Urbani” value is given as 0.9, the “Binding of serum 1b to linear peptides of protein X4 of SARS-CoV Urbani” value came to 0.5 and the “Binding of serum 1b to looped/cyclic peptides of protein X4 of SARS-CoV Urbani” value is 0.4. In test [1], the “Binding of serum 2 to linear peptides of protein X4 of SARS-CoV Urbani” value is 0.4, the “Binding of serum 2 to looped/cyclic peptides of protein X4 of SARS-CoV Urbani” value is 0.8, the “Binding of serum 6 to linear peptides of protein X4 of SARS-CoV Urbani” value is on record as 0.3 and the “Binding of serum 6 to looped/cyclic peptides of protein X4 of SARS-CoV Urbani” value is listed as 0.6. Further, in test [1], the “Binding of serum 37 to linear peptides of protein X4 of SARS-CoV Urbani” value is listed as 0.7, the “Binding of serum 37 to looped/cyclic peptides of protein X4 of SARS-CoV Urbani” value came out at 0.7, the “Binding of serum 62 to linear peptides of protein X4 of SARS-CoV Urbani” value is 0.7 and the “Binding of serum 62 to looped/cyclic peptides of protein X4 of SARS-CoV Urbani” value is given as 0.9. Also, in test [1], the “Binding of serum London to linear peptides of protein X4 of SARS-CoV Urbani” value worked out at 0.7, the “Binding of serum London to looped/cyclic peptides of protein X4 of SARS-CoV Urbani” value worked out at 0.3, the “Binding of serum SARS-green to linear peptides of protein X4 of SARS-CoV Urbani” value is 0.4 and the “Binding of serum SARS-green to looped/cyclic peptides of protein X4 of SARS-CoV Urbani” value turned out to be 0.8. Besides, in test [1], the “Binding of serum SARS-yellow to linear peptides of protein X4 of SARS-CoV Urbani” value worked out at 0.5 and the “Binding of serum SARS-yellow to looped/cyclic peptides of protein X4 of SARS-CoV Urbani” value is listed as 0.7. Further, in test [2], the “Binding of Control Serum Blood-Bank to Looped peptides” value came out at 0.9, the “Binding of Control serum Blood-bank to linear peptides” value was 0.6, the “Binding of Control serum LUMC to linear peptides” value was 0.5 and the “Binding of Control serum LUMC to looped peptides” value was 0.8. In test [3], the “Rabbit serum linear peptides” value is reported as 0.5 and the “Rabbit serum looped peptides” value came out at 0.5.

NKRWQLALYKGFQFI: in test [1], the “Binding of serum 1a to linear peptides of protein X1 of SARS-CoV Urbani” value came out at 0.7, the “Binding of serum 1a to looped/cyclic peptide (PEPSCAN-ELISA)” value is given as 0.6, the “Binding of serum 1b to linear peptides of protein X1 of SARS-CoV Urbani” value is 0.5 and the “Binding of serum 1b to looped/cyclic peptide (PEPSCAN-ELISA)” value is 0.4. In test [1], the “Binding of serum 2 to linear peptides of protein X1 of SARS-CoV Urbani” value is recorded as 0.7, the “Binding of serum 2 to looped/cyclic peptide (PEPSCAN-ELISA)” value is 0.5, the “Binding of serum 6 to linear peptides of protein X1 of SARS-CoV Urbani” value is 0.8 and the “Binding of serum 6 to looped/cyclic peptide (PEPSCAN-ELISA)” value was determined as 0.5. In test [1], the “Binding of serum 37 to linear peptides of protein X1 of SARS-CoV Urbani” value stood at 0.6, the “Binding of serum 37 to looped/cyclic peptide (PEPSCAN-ELISA)” value was 0.6, the “Binding of serum 62 to linear peptides of protein X1 of SARS-CoV Urbani” value is recorded as 0.6 and the “Binding of serum 62 to looped/cyclic peptide (PEPSCAN-ELISA)” value amounted to 0.7. In addition, in test [1], the “Binding of serum London to linear peptides of protein X1 of SARS-CoV Urbani” value came out at 0.3, the “Binding of serum London to looped/cyclic peptide (PEPSCAN-ELISA)” value was 0.4, the “Binding of serum SARS-green to linear peptides of protein X1 of SARS-CoV Urbani” value is on record as 0.3 and the “Binding of serum SARS-green to looped/cyclic peptide (PEPSCAN-ELISA)” value was 0.2. Also, in test [1], the “Binding of serum SARS-yellow to linear peptides of protein X1 of SARS-CoV Urbani” value came out at 0.3 and the “Binding of serum SARS-yellow to looped/cyclic peptide (PEPSCAN-ELISA)” value is reported as 0.5. In test [2], the “Binding of Control Serum Blood-Bank to Looped peptides” value amounted to 0.7, the “Binding of Control serum Blood-bank to linear peptides” value came to 0.6, the “Binding of Control serum LUMC to linear peptides” value is recorded as 0.6 and the “Binding of Control serum LUMC to looped peptides” value is reported as 0.7. Also, in test [3], the “Recognition of the peptide by the rabbit serum” value is on record as “recognized”.

For NLDVIISSIVRQLFK, in test [1], the “Binding of serum 1a to linear peptides of protein X3 of SARS-CoV Urbani” value was found to be 0.7, the “Binding of serum 1a to looped/cyclic peptides of protein X3 of SARS-CoV Urbani” value worked out at 0.5, the “Binding of serum 1b to linear peptides of protein X3 of SARS-CoV Urbani” value is 0.2 and the “Binding of serum 1b to looped/cyclic peptides of protein X3 of SARS-CoV Urbani” value is reported as 0.4. Further, in test [1], the “Binding of serum 2 to linear peptides of protein X3 of SARS-CoV Urbani” value is 0.4, the “Binding of serum 2 to looped/cyclic peptides of protein X3 of SARS-CoV Urbani” value was determined as 0.5, the “Binding of serum 6 to linear peptides of protein X3 of SARS-CoV Urbani” value is recorded as 0.6 and the “Binding of serum 6 to looped/cyclic peptides of protein X3 of SARS-CoV Urbani” value was 0.8. In test [1], the “Binding of serum 37 to linear peptides of protein X3 of SARS-CoV Urbani” value worked out at 0.6, the “Binding of serum 37 to looped/cyclic peptides of protein X3 of SARS-CoV Urbani” value is listed as 0.5, the “Binding of serum 62 to linear peptides of protein X3 of SARS-CoV Urbani” value was determined as 0.6 and the “Binding of serum 62 to looped/cyclic peptides of protein X3 of SARS-CoV Urbani” value was 0.4. In test [1], the “Binding of serum London to linear peptides of protein X3 of SARS-CoV Urbani” value is 0.7, the “Binding of serum London to looped/cyclic peptides of protein X3 of SARS-CoV Urbani” value came to 1.8, the “Binding of serum SARS-green to linear peptides of protein X3 of SARS-CoV Urbani” value turned out to be 0.3 and the “Binding of serum SARS-green to looped/cyclic peptides of protein X3 of SARS-CoV Urbani” value is 0.2. Besides, in test [1], the “Binding of serum SARS-yellow to linear peptides of protein X3 of SARS-CoV Urbani” value is on record as 0.3 and the “Binding of serum SARS-yellow to looped/cyclic peptides of protein X3 of SARS-CoV Urbani” value is 0.6. In test [2], the “Binding of Control Serum Blood-Bank to Looped peptides of the protein X3 of SARS-CoV Urbani” value is on record as 0.8, the “Binding of Control serum Blood-bank to linear peptides of the protein X3 of SARS-CoV Urbani” value was 0.8, the “Binding of Control serum LUMC to linear peptides of the protein X3 of SARS-CoV Urbani” value was 0.6 and the “Binding of Control serum LUMC to looped peptides of the protein X3 of SARS-CoV Urbani” value is recorded as 0.8. Besides, in test [3], the “Rabbit serum linear peptides” value was 0.3 and the “Rabbit serum looped peptides” value turned out to be 0.2.
